According to patent US7247734B2 (Vernalis (Cambridge) Limited, priority 2001, dated 2007):
Read-outs that look alike come from different tables or passages of the source.

Molecular target: T1, yeast HSP90 (Saccharomyces cerevisiae, UniProt P02829)
T1 construct: made in house; host or cells: E. coli
Experiment: Malachite green HSP90 ATPase assay
Assay type: biochemical
From the text: Two methods have been developed to measure the intrinsic ATPase activity of HSP90, using yeast HSP90 as a model system. The first method utilises a regenerating coupled enzyme assay. The second assay, based on the use of malachite green for the measurement of inorganic phosphate, was designed for high throughput screening (HTS) to identify novel HSP90 inhibitor drug candidates.
Colorimetric assays for the determination of phosphate, based on the formation of a phosphomolybdate complex, can be carried out in a few steps with inexpensive reagents and are well suited to the automation required for high throughput screening (see, e.g., Cogan et al., 1999). Enzymes that release inorganic phosphate are assayed using the reaction of the cationic dye, malachite green, with the a complex formed by a reaction of the inorganic phosphate with molybdate to generate a blue-green colour with an absorbance maximum at 610 nm (see, e.g., Baykov et al., 1988; Harder et al., 1994; Maehama et al., 2000). The method has been used in both high throughput (see, e.g., Rumsfeld et al., 2000) and ultra-high throughput screening formats (see, e.g., Layery et al., 2001) for a variety of non-HSP90 ATPases. However, this method is complicated by the non-enzymatic hydrolysis of ATP in the presence of acidic malachite green reagent, causing an increase in colour (see, e.g., Chan et al., 1986; Henkel et al., 1988). This process is mediated by molybdate and can be overcome by the addition of sodium citrate immediately after the reagent (see, e.g., Lanzetta et al., 1979; Schirmer et al., 1998; Baginski et al., 1975). This modification has been adapted to the 96-well microtitre plate assay previously described for other ATPases (see, e.g., Lanzetta et al., 1979) to produce the following protocol for HSP90 ATPase, which is suitable for high throughput screening.
Chemicals are of the highest purity commercially available and all aqueous solutions are made up in AR water. Because of the need to minimise contamination with inorganic phosphate, precautions should be taken with solutions and apparatus used in the assays. Glassware and pH meters are rinsed with double distilled or deionised water before use and, wherever possible, plastic ware should be used. Gloves are worn for all procedures. • (1) Immulon 96-well (Thermo Labsystems, Basingstoke, UK) or Cliniplate 384-well flat-bottomed polystyrene multiwell plates (Thermo Labsystems). • (2) Assay buffer of (a) 100 mM Tris-HCl, pH 7.4, (b) 20 mM KCl, (c) 6 mM MgCl2. Stored at 4° C. • (3) 0.0812% (w/v) malachite green (M 9636, Sigma Aldrich Ltd., Poole, UK). Stored at room temperature. • (4) 2.32% (w/v) polyvinyl alcohol USP (P 1097, Sigma Aldrich Ltd, Poole, UK) in boiling water (see Comment 1), allowed to cool, and stored at room temperature. • (5) 5.72% (w/v) ammonium molybdate in 6 M hydrochloric acid. Stored at room temperature. • (6) 34% (w/v) sodium citrate. Stored at room temperature. • (7) ATP, disodium salt, special quality (519979, Boehringer Mannheim, Lewes, UK). Stored at 4° C. • (8) E. coli expressed yeast HSP90 protein, purified >95% (see, e.g., Panaretou et al., 1998) and stored at −80° C. as 10 μl aliquots containing 0.5 mg of protein. Method
The following protocol was used: • (1) On the day of use, prepare the malachite green reagent from the stock solutions. Mix (a) 2 parts of malachite green, (b) 1 part of polyvinyl alcohol, (c) 1 part of ammonium molybdate, and (d) 2 parts of water. Initially, the reagent is a dark brown colour, but after standing at room temperature for about 2 h, this becomes a golden yellow colour and is ready for use. • (2) For the high throughput screening assays, the test compounds are dissolved at 200 μM in 2.0% DMSO and contained in daughter plates derived from the chemical libraries. Transfer 5 μl of each sample from the daughter plate to each well of the assay plate using automated equipment (see Comment 3). This represents a final concentration in the well of 40 μM.

[1] = activity range, ATPase assay, read-out: ATPase IC50
[2] = activity class, read-out: Hsp90 IC50
[3] = ATPase IC50, activity range, ATPase assay

T1 sequence (P02829 whole entry, looked up): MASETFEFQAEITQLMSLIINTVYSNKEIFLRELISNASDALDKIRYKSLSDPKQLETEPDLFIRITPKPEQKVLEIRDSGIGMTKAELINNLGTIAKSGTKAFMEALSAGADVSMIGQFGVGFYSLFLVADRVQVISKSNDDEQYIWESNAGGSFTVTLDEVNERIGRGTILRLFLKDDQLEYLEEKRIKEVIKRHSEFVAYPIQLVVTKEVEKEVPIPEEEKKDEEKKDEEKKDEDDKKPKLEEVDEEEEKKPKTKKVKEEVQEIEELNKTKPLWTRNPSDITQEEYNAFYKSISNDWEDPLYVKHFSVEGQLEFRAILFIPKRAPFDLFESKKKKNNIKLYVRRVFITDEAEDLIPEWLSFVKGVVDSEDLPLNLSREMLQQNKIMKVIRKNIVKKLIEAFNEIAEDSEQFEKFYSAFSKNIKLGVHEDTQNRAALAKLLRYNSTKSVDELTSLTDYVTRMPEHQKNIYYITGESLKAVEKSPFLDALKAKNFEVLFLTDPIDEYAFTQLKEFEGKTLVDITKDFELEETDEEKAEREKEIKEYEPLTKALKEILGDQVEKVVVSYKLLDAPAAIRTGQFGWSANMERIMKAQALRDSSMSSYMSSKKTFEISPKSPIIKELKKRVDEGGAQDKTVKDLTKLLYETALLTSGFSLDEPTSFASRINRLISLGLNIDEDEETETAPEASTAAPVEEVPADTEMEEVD

Row | Structure (SMILES) | IC50 [2] [µM] | other results
1 | Oc1cc(O)c(-c2n[nH]cc2-c2ccsc2)cc1Cl [Example 174] | – | IC50 [1]: < 50 µM
2 | CCCc1cc(-c2n[nH]cc2-c2ccccc2)c(O)cc1OC [Example 126] | > 10 | –
3 | Cc1[nH]nc(-c2ccc(OCC(=O)O)cc2O)c1-c1ccc(F)cc1 [Example 123] | > 10 | –
4 | Cc1c(-c2ccc(Br)cc2)c(-c2cc(Cl)c(O)cc2O)nn1C [Example 163] | – | IC50 [1]: > 50 µM
5 | COc1ccc(-c2c(-c3ccc(O)cc3O)n[nH]c2C)cc1 [Example 92] | – | IC50 (Hsp90 IC50, activity class): 10 to 100 µM
6 | Oc1cc(O)c(-c2n[nH]cc2-c2ccc3c(c2)OCCO3)cc1Cl [Example 63] | – | IC50 (Hsp90 IC50, activity class): < 10 µM
7 | Oc1ccc(-c2[nH]ncc2-c2ccc(Br)cc2)c(O)c1 [Example 56] | > 10 | –
8 | Cc1[nH]nc(-c2cccc(C#N)c2)c1-c1ccc2c(c1)OCCO2 [Example 118] | > 10 | –
9 | CCc1cc(-c2n[nH]cc2-c2nc(C)cs2)c(O)cc1OC [Example 131] | > 10 | –
10 | CC(=O)Nc1ccc(-c2n[nH]c(C)c2-c2ccc3c(c2)OCCO3)cc1 [Example 112] | > 10 | –
11 | COc1ccc(-c2c(C)n[nH]c2-c2cc(C(=O)NN)c(O)cc2O)cc1 [Example 178] | – | IC50 [1]: > 50 µM
12 | Cn1cc(-c2ccc(Br)cc2)c(-c2cc(Cl)c(O)cc2O)n1 [Example 161, 4-[4-(4-Bromo-phenyl)-1-methyl-1H-pyrazol-3-yl]-6-chloro-benzene-1,3-diol] | – | IC50 [1]: > 50 µM
13 | Cc1[nH]nc(-c2cc(Cl)c(O)c(Cl)c2O)c1-c1ccccc1 [Example 138] | > 10 | –
14 | Oc1ccc(-c2n[nH]c(C(F)(F)F)c2-c2ccccc2Cl)c(O)c1 [Example 144] | > 10 | –
15 | Cc1ccc(O)c(-c2n[nH]c(C)c2-c2ccc3c(c2)OCCO3)c1 [Example 110] | > 10 | –
16 | CCCc1cc(-c2n[nH]c(C)c2-c2ccc3c(c2)OCCO3)c(O)cc1O [CCT018156] | – | IC50 (malachite green assay, 1 mM ATP, ±SD if n=3–5, read-out: HSP90 ATPase inhibition IC50): 52.8 ± 12 µM
17 | COc1ccc(-c2c(-c3cc(Cl)c(O)cc3O)n[nH]c2Br)cc1 [Example 179, 4-[5-Bromo-4-(4-methoxy-phenyl)-1H-pyrazol-3-yl]-6-chloro-benzene-1,3-diol] | – | IC50 [1]: < 50 µM
18 | COc1ccc(-c2c(-c3cc(Cl)c(O)cc3O)n[nH]c2C(=O)NC(C)C)cc1 [Example 170, 5-(5-Chloro-2,4-dihydroxy-phenyl)-4-(4-methoxy-phenyl)-2H-pyrazole-3-carboxylic acid isopropylamide] | – | IC50 [3]: < 50 µM
19 | Cc1[nH]nc(-c2ccc(C(=O)Nc3cccnc3)cc2)c1-c1ccc2c(c1)OCCO2 [Example 160] | – | IC50 [1]: > 50 µM

Row | Structure (SMILES) | IC50 [2] [µM] | other results
20 | COc1ccc(-c2c(-c3cc(Cl)c(O)cc3O)n[nH]c2C)cc1 [Example 64] | – | IC50 (Hsp90 IC50, activity class): < 10 µM
21 | COc1ccccc1-c1c[nH]nc1-c1cc(Cl)c(O)cc1O [Example 71] | 10 to 100 | –
22 | COc1ccc(-c2c[nH]nc2-c2ccc(O)cc2O)cc1OC [Example 51] | 10 to 100 | –
23 | Cc1[nH]nc(-c2ccc(C(=O)NCC3CCCO3)cc2)c1-c1ccc2c(c1)OCCO2 (centres unmarked) [Example 159] | – | IC50 [1]: > 50 µM
24 | CC(=O)Nc1cccc(-c2n[nH]c(C)c2-c2ccc3c(c2)OCCO3)c1 [Example 113] | > 10 | –
25 | Cc1ncc(-c2c(-c3ccc(O)cc3O)n[nH]c2C(F)(F)F)s1 [Example 143] | > 10 | –
26 | CCCc1cc(-c2n[nH]c(C)c2-c2nc3ccccc3s2)c(O)cc1O [Example 100] | 10 to 100 | –
27 | Cc1nc(-c2c[nH]nc2-c2cc(C)c(O)cc2O)cs1 [Example 90] | 10 to 100 | –
28 | Cc1[nH]nc(-c2ccc(S(N)(=O)=O)cc2)c1-c1ccc2c(c1)OCCO2 [Example 111] | > 10 | –
29 | CCc1cc(-c2n[nH]c(C)c2-c2ccc3c(c2)OCCO3)c(O)cc1O [Example 49] | – | IC50 (Hsp90 IC50, activity class): < 10 µM
30 | CCCc1cc(-c2n[nH]c(C)c2-c2ccc(C(=O)OCC)o2)c(O)cc1O [Example 98] | 10 to 100 | –
31 | CCc1cc(-c2n[nH]c(C)c2-c2nc3ccccc3s2)c(O)cc1O [Example 146] | > 10 | –
32 | Oc1cc(O)c(-c2n[nH]cc2-c2cncnc2)cc1Cl [Example 177] | – | IC50 [1]: < 50 µM
33 | COc1ccc(-c2c(-c3cc(Cl)c(O)cc3O)n[nH]c2C(N)=O)cc1 [Example 172, 5-(5-Chloro-2,4-dihydroxy-phenyl)-4-(4-methoxy-phenyl)-2H-pyrazole-3-carboxylic acid amide] | – | IC50 [3]: < 50 µM
34 | COc1ccc(-c2c(-c3ccc(CO)cc3O)n[nH]c2C)cc1 [Example 183] | – | IC50 [1]: > 50 µM
35 | CCCc1cc(-c2[nH]ncc2-c2ccc(C(=O)OCC)o2)c(O)cc1O [Example 97] | 10 to 100 | –
36 | CCc1cc(-c2n[nH]c(C(=O)O)c2-c2ncc(C)s2)c(O)cc1O [Example 102] | 10 to 100 | –
37 | COc1ccc(-c2c(C)n[nH]c2-c2cnc(N)nc2)cc1 [Example 151, 5-[4-(4-Methoxy-phenyl)-5-methyl-2H-pyrazol-3-yl]-pyrimidin-2-ylamine] | > 10 | –

More lines, main results first:

Row | IC50 [2] [µM] | Structure (SMILES) | other results
38 | 10 to 100 | CCc1cc(-c2n[nH]c(C)c2-c2nc3ccccc3n2C)c(O)cc1O [Example 82] | –
39 | 10 to 100 | CCc1cc(-c2n[nH]cc2-c2ncc(C)s2)c(O)cc1O [Example 101] | –
40 | < 10 | Oc1cc(O)c(-c2n[nH]cc2-c2cccc(OCCF)c2)cc1Cl [Example 67] | –
41 | < 10 | CCc1cc(-c2n[nH]cc2-c2ccc(Br)cc2)c(O)cc1O [Example 79] | –
42 | < 10 | O=C(NCc1ccc(-c2c[nH]nc2-c2cc(Cl)c(O)cc2O)cc1)c1ccc(-c2c3ccc(=O)cc-3oc3cc(O)ccc23)c(C(=O)O)c1 [Example 106, N-{4-[3-(5-Chloro-2,4-dihydroxy-phenyl)-1H-pyrazol-4-yl]-benzyl}-6-(6-hydroxy-3-oxo-3H-xanthen-9-yl)-isophthalamic acid] | –
43 | < 10 | Oc1cc(O)c(-c2n[nH]cc2-c2cccc(Br)c2)cc1Cl [Example 66] | –
44 | 10 to 100 | Oc1ccc(-c2[nH]ncc2-c2ccccc2)c(O)c1 [Example 55] | –
45 | < 10 | COc1cccc(-c2c[nH]nc2-c2cc(Cl)c(O)cc2O)c1 [Example 77] | –
46 | < 10 | Oc1ccc(-c2c[nH]nc2-c2cc(Cl)c(O)cc2O)cc1 [Example 76] | –
47 | 10 to 100 | COc1ccc(-c2cccc(-c3c[nH]nc3-c3cc(Cl)c(O)cc3O)c2)cc1OC [Example 68] | –
48 | < 10 | Cc1c(CC(=O)NCc2ccc(-c3c[nH]nc3-c3cc(Cl)c(O)cc3O)cc2)c(=O)oc2cc(N)c(S(=O)(=O)O)cc12 [Example 105] | –
49 | < 10 | Oc1cc(O)c(-c2n[nH]cc2-c2ccccc2Br)cc1Cl [Example 60] | –
50 | < 10 | O=C(O)CCCOc1ccc(-c2c[nH]nc2-c2cc(Cl)c(O)cc2O)cc1 [Example 75] | –
51 | < 10 | CCc1cc(-c2n[nH]cc2-c2ccc(OC)c(OC)c2)c(O)cc1O [Example 50] | –
52 | < 10 | CCOc1cccc(-c2ccc(-c3c[nH]nc3-c3cc(Cl)c(O)cc3O)cc2)c1 [Example 72] | –
53 | < 10 | COc1ccc(-c2ccc(-c3c[nH]nc3-c3cc(Cl)c(O)cc3O)cc2)cc1OC [Example 157] | –
54 | < 10 | N#CCCCOc1cccc(-c2c[nH]nc2-c2cc(Cl)c(O)cc2O)c1 [Example 73] | –
55 | < 10 | COc1ccc(-c2c(-c3cc(Cc4ccccc4)c(O)cc3O)n[nH]c2C)cc1 [Example 104, 4-benzyl-6-[4-(4-methoxy-phenyl)-5-methyl-1H-pyrazol-3-yl]-benzene-1,3-diol] | –
56 | < 10 | Cc1n[nH]c(-c2cc(Cl)c(O)cc2O)c1-c1ccc(OCCCC#N)cc1 [Example 70] | –
